Measured values reported in patent US20230295200A1 (REGENTS OF THE UNIVERSITY OF MICHIGAN, priority 2022, published 2023).

Legend:
[1] = target: T1, STAT6 protein (Homo sapiens, UniProt P42226); test: Fluorescence polarization (FP) binding assay, STAT6; details: FP competition, 5 nM fluorescein-labeled tracer, 200 nM protein, PBS pH7.4; read-out: Binding STAT6
T1 sequence (P42226 1-847): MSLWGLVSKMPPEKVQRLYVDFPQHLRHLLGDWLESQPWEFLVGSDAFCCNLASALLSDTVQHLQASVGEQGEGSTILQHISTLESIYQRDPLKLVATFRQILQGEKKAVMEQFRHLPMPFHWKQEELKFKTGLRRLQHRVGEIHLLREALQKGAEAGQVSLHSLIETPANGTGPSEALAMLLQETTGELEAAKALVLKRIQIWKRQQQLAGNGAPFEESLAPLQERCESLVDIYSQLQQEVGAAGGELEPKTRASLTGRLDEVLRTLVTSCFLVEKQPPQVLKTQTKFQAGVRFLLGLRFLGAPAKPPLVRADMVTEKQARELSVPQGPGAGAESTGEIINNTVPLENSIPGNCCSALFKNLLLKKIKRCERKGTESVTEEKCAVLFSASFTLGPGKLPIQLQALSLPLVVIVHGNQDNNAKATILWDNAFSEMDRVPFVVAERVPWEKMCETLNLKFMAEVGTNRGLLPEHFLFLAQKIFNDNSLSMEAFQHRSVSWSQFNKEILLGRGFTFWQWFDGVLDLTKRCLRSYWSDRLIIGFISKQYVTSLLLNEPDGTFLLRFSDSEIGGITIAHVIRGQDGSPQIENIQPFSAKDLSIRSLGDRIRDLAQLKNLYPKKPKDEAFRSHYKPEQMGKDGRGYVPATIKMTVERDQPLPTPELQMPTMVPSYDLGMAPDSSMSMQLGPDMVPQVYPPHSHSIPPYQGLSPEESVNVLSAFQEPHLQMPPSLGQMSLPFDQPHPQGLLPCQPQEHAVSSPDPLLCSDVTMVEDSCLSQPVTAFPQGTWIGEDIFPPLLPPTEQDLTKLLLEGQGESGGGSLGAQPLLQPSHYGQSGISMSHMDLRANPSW
Summary of the method: (§1)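 Polarization read after 1 h equilibration at room temperature (preceded by 15 min shaking) of 200 nM STAT5 and/or STAT6 with 5 nM fluorescein tracer. Buffer: PBS pH 7.4 plus 0.01% BGG, 0.01% Tween-20, 2 mM DTT; inhibition constants derived by nonlinear fitting.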

[2] = target: T2, STAT5A (Homo sapiens, UniProt P42229); test: Fluorescence polarization (FP) binding assay, STAT5A; details: FP competition, 5 nM fluorescein-labeled tracer, 200 nM protein, PBS pH7.4
T2 sequence (P42229 1-794): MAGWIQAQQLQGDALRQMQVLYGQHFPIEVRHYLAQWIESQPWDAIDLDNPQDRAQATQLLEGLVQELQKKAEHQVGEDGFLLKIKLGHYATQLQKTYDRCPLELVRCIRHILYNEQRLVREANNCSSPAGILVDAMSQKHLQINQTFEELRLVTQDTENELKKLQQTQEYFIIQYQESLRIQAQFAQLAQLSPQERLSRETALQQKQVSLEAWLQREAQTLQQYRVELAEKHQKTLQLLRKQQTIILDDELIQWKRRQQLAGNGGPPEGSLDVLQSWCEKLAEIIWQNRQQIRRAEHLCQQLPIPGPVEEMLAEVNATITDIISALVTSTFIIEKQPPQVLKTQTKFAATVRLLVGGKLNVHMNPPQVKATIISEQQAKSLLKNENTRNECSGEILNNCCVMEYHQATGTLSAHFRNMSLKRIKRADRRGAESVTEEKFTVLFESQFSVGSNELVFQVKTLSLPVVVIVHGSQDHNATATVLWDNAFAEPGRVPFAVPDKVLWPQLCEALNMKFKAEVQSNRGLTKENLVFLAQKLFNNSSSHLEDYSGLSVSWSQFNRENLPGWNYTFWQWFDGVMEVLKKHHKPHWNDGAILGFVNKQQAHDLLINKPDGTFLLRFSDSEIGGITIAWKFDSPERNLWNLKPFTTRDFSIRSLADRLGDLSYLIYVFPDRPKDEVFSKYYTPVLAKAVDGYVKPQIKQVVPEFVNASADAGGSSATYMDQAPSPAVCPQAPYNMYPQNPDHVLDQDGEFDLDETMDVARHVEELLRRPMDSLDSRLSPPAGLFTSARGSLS
Summary of the method: as §1

| Structure (SMILES) | Ki [1] [nM] | Ki [2] [nM] |
| --- | --- | --- |
| CC(C)(C)[C@H](NC(=O)c1cc2cc(C(F)(F)P(=O)(O)O)ccc2s1)C(=O)N1CCN(C(=O)OCc2ccccc2)C[C@H]1C(=O)Nc1ncc(-c2ccccc2)s1 [Compound 201, ((2-(((S)-1-((S)-4-((benzyloxy)carbonyl)-2-((5-phenylthiazol-2-yl)carbamoyl)piperazin-1-yl)-3,3-dimethyl-1-oxobutan-2-yl)carbamoyl)benzo[b]thiophen-5-yl)difluoromethyl)phosphonic acid] | 1000 to 10000 | 100 to 1000 |
| CC(C)(C)[C@H](NC(=O)c1cc2cc(C(F)(F)P(=O)(O)O)ccc2s1)C(=O)N1C[C@H](OCc2ccccc2)C[C@H]1C(=O)N1Cc2ccccc2C1 [Compound 202, ((2-(((S)-1-((2S,4R)-4-(benzyloxy)-2-(isoindoline-2-carbonyl)pyrrolidin-1-yl)-3,3-dimethyl-1-oxobutan-2-yl)carbamoyl)benzo[b]thiophen-5-yl)difluoromethyl)phosphonic acid] | 1000 to 10000 | 1000 to 10000 |
| CC(C)(C)[C@H](NC(=O)c1cc2cc(C(F)(F)P(=O)(O)O)ccc2s1)C(=O)N1C[C@H](OCc2ccccc2)C[C@H]1C(=O)Nc1ncc(-c2ccccc2)s1 [Compound 203, ((2-(((S)-1-((2S,4R)-4-(benzyloxy)-2-((5-phenylthiazol-2-yl)carbamoyl)pyrrolidin-1-yl)-3,3-dimethyl-1-oxobutan-2-yl)carbamoyl)benzo[b]thiophen-5-yl)difluoromethyl)phosphonic acid] | 1000 to 10000 | 100 to 1000 |
| CCOC(=O)CO[C@@H]1C[C@@H](C(=O)Nc2ncc(-c3ccccc3)s2)N(C(=O)[C@@H](NC(=O)c2cc3cc(C(F)(F)P(=O)(O)O)ccc3s2)C(C)(C)C)C1 [Compound 206, ((2-(((S)-1-((2S,4R)-4-(2-ethoxy-2-oxoethoxy)-2-((5-phenylthiazol-2-yl)carbamoyl)pyrrolidin-1-yl)-3,3-dimethyl-1-oxobutan-2-yl)carbamoyl)benzo[b]thiophen-5-yl)difluoromethyl)phosphonic acid] | 1000 to 10000 | 100 to 1000 |
| CC(C)(C)[C@H](NC(=O)c1cc2cc(C(F)(F)P(=O)(O)O)ccc2s1)C(=O)N1C[C@@H](Oc2ccccc2)C[C@H]1C(=O)Nc1ncc(-c2ccccc2)s1 [Compound 207, ((2-(((S)-3,3-dimethyl-1-oxo-1-((2S,4S)-4-phenoxy-2-((5-phenylthiazol-2-yl)carbamoyl)pyrrolidin-1-yl)butan-2-yl)carbamoyl)benzo[b]thiophen-5-yl)difluoromethyl)phosphonic acid] | 1000 to 10000 | 1000 to 10000 |
| CC(C)(C)[C@H](NC(=O)c1cc2cc(C(F)(F)P(=O)(O)O)ccc2s1)C(=O)N1C[C@H](Oc2ccccc2)C[C@H]1C(=O)Nc1ncc(-c2ccccc2)s1 [Compound 208, ((2-(((S)-3,3-dimethyl-1-oxo-1-((2S,4R)-4-phenoxy-2-((5-phenylthiazol-2-yl)carbamoyl)pyrrolidin-1-yl)butan-2-yl)carbamoyl)benzo[b]thiophen-5-yl)difluoromethyl)phosphonic acid] | 1000 to 10000 | 100 to 1000 |
| CC(C)(C)[C@H](NC(=O)c1cc2cc(C(F)(F)P(=O)(O)O)ccc2s1)C(=O)N1CCC[C@H]1C(=O)Nc1ncc(Cc2ccccc2)s1 [Compound 211, ((2-(((S)-1-((S)-2-((5-benzylthiazol-2-yl)carbamoyl)pyrrolidin-1-yl)-3,3-dimethyl-1-oxobutan-2-yl)carbamoyl)benzo[b]thiophen-5-yl)difluoromethyl)phosphonic acid] | 100 to 1000 | 1000 to 10000 |
| CC(C)(C)[C@H](NC(=O)c1cc2cc(C(F)(F)P(=O)(O)O)ccc2s1)C(=O)N1CCC[C@H]1C(=O)Nc1nc(Cc2ccccc2)cs1 [Compound 212, ((2-(((S)-1-((S)-2-((4-benzylthiazol-2-yl)carbamoyl)pyrrolidin-1-yl)-3,3-dimethyl-1-oxobutan-2-yl)carbamoyl)benzo[b]thiophen-5-yl)difluoromethyl)phosphonic acid] | 1000 to 10000 | 1000 to 10000 |
| CC(C)(C)[C@H](NC(=O)c1cc2cc(C(F)(F)P(=O)(O)O)ccc2s1)C(=O)N1CCC[C@H]1C(=O)Nc1nc2ccccc2s1 [Compound 213, ((2-(((S)-1-((S)-2-(benzo[d]thiazol-2-ylcarbamoyl)pyrrolidin-1-yl)-3,3-dimethyl-1-oxobutan-2-yl)carbamoyl)benzo[b]thiophen-5-yl)difluoromethyl)phosphonic acid] | 1000 to 10000 | > 10000 |
| CC(C)(C)[C@H](NC(=O)c1cc2cc(C(F)(F)P(=O)(O)O)ccc2s1)C(=O)N1Cc2ccccc2C[C@H]1C(=O)N1CCOC(c2ccccn2)C1 (stereo partly drawn) [Compound 216, ((2-(((2S)-3,3-dimethyl-1-oxo-1-((3S)-3-(2-(pyridin-2-yl)morpholine-4-carbonyl)-3,4-dihydroisoquinolin-2(1H)-yl)butan-2-yl)carbamoyl)benzo[b]thiophen-5-yl)difluoromethyl)phosphonic acid] | > 10000 | > 10000 |

The next lines start with the values.

| Ki [1] [nM] | Ki [2] [nM] | Structure (SMILES) |
| --- | --- | --- |
| 1000 to 10000 | 1000 to 10000 | CCOC(=O)CO[C@H]1C[C@@H](C(=O)Nc2ncc(-c3ccccc3)s2)N(C(=O)[C@@H](NC(=O)c2cc3cc(C(F)(F)P(=O)(O)O)ccc3s2)C(C)(C)C)C1 [Compound 205, ((2-(((S)-1-((2S,4S)-4-(2-ethoxy-2-oxoethoxy)-2-((5-phenylthiazol-2-yl)carbamoyl)pyrrolidin-1-yl)-3,3-dimethyl-1-oxobutan-2-yl)carbamoyl)benzo[b]thiophen-5-yl)difluoromethyl)phosphonic acid] |
| 1000 to 10000 | > 10000 | CC(C)(C)[C@H](NC(=O)c1cc2cc(C(F)(F)P(=O)(O)O)ccc2s1)C(=O)N1C[C@@H](Oc2ccc3ccccc3c2)C[C@H]1C(=O)Nc1ncc(-c2ccccc2)s1 [Compound 209, ((2-(((S)-3,3-dimethyl-1-((2S,4S)-4-(naphthalen-2-yloxy)-2-((5-phenylthiazol-2-yl)carbamoyl)pyrrolidin-1-yl)-1-oxobutan-2-yl)carbamoyl)benzo[b]thiophen-5-yl)difluoromethyl)phosphonic acid] |
| 1000 to 10000 | 1000 to 10000 | CC(C)(C)[C@H](NC(=O)c1cc2cc(C(F)(F)P(=O)(O)O)ccc2s1)C(=O)N1C[C@H](Oc2ccc3ccccc3c2)C[C@H]1C(=O)Nc1ncc(-c2ccccc2)s1 [Compound 210, ((2-(((S)-3,3-dimethyl-1-((2S,4R)-4-(naphthalen-2-yloxy)-2-((5-phenylthiazol-2-yl)carbamoyl)pyrrolidin-1-yl)-1-oxobutan-2-yl)carbamoyl)benzo[b]thiophen-5-yl)difluoromethyl)phosphonic acid] |
| 1000 to 10000 | > 10000 | CC(C)(C)[C@H](NC(=O)c1cc2cc(C(F)(F)P(=O)(O)O)ccc2s1)C(=O)N1CCC[C@H]1C(=O)N[C@H]1CCc2ccccc2C1 [Compound 214, ((2-(((S)-3,3-dimethyl-1-oxo-1-((S)-2-(((S)-1,2,3,4-tetrahydronaphthalen-2-yl)carbamoyl)pyrrolidin-1-yl)butan-2-yl)carbamoyl)benzo[b]thiophen-5-yl)difluoromethyl)phosphonic acid] |
| 1000 to 10000 | > 10000 | CC(C)(C)[C@H](NC(=O)c1cc2cc(C(F)(F)P(=O)(O)O)ccc2s1)C(=O)N1CCC[C@H]1C(=O)N[C@@H]1CCc2ccccc2C1 [Compound 215, ((2-(((S)-3,3-dimethyl-1-oxo-1-((S)-2-(((R)-1,2,3,4-tetrahydronaphthalen-2-yl)carbamoyl)pyrrolidin-1-yl)butan-2-yl)carbamoyl)benzo[b]thiophen-5-yl)difluoromethyl)phosphonic acid] |
